Values joined by “and” are separate entries in the source; they are usually repeats but may differ in a detail not shown here. Equal entries are not always repeated.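 Exposure lasted 48 hours, with cells grown in 96-well plates and compounds tested at five concentrations. GI50 = concentration required for 50% inhibition of growth. Definition used: TGI = concentration required for complete inhibition of growth.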
Key:
Assay in all cases: NCI anticancer screen, dose series, 48 h
NCI-H522 lung = tested on: NCI-H522 lung
SF-268 CNS = tested on: SF-268 CNS
OVCAR-4 ovarian = tested on: OVCAR-4 ovarian
SR leukemia = tested on: SR leukemia
SK-MEL-5 melanoma = tested on: SK-MEL-5 melanoma
SW-620 colon = tested on: SW-620 colon
HT29 colon = tested on: HT29 colon
SN12C renal = tested on: SN12C renal
SK-MEL-28 melanoma = tested on: SK-MEL-28 melanoma
M14 melanoma = tested on: M14 melanoma

SMILES	GI50 (NCI-H522 lung) [µM]	TGI (NCI-H522 lung) [µM]	GI50 (SF-268 CNS) [µM]	TGI (SF-268 CNS) [µM]	GI50 (OVCAR-4 ovarian) [µM]	TGI (OVCAR-4 ovarian) [µM]	GI50 (SR leukemia) [µM]	TGI (SR leukemia) [µM]	GI50 (SK-MEL-5 melanoma) [µM]	TGI (SK-MEL-5 melanoma)	GI50 (SW-620 colon) [µM]	TGI (SW-620 colon) [µM]	GI50 (HT29 colon) [µM]	TGI (HT29 colon) [µM]	GI50 (SN12C renal) [µM]	TGI (SN12C renal) [µM]	GI50 (SK-MEL-28 melanoma) [µM]	TGI (SK-MEL-28 melanoma) [µM]	GI50 (M14 melanoma) [µM]	TGI (M14 melanoma) [µM]
Cn1c(=O)c(Oc2ccc(F)cc2F)cc2cnc(NCCS(C)(=O)=O)nc21	> 25	> 25	> 25	> 25	> 25	> 25	> 25	> 25	> 25	> 25 µM	> 25	> 25	> 25	> 25	> 25	> 25	> 25	> 25	> 25	> 25
O=C(Nc1ccc(Cl)c(Cl)c1)OCCN1c2ccccc2Sc2ccccc21	–	> 10	–	> 10	–	> 10	–	> 10	–	> 10 µM	–	> 10	–	> 10	–	> 10	–	> 10	–	> 10
O=C(Nc1ccc(I)cc1F)c1cc(Cl)ccc1O	0.324	4.68	0.507	7.06	0.356	6.4	0.531	> 100	0.234	0.596 µM	0.737	12.7	3.29	27.3	0.365	4.47	0.353	1.71	0.407	4.72
O=C1c2nc3n(c2C(=O)c2c1nc1n2CCC1)CCC3	–	19.5	–	32	5.45	14.9	3.58	> 40.6	1.68	3.05 µM and 2.78 µM	–	17.2	5.14	10.8	9.48	14.5	–	31.3	4.88	4.65
CC1=C(/C=C/C(C)=C/C=C/C(C)=C/CO)C(C)(C)CCC1	–	54.7	–	52	–	> 100	–	38.3	–	32 µM	–	38.8	–	> 100	–	60.8	–	48.5	–	35.7
C=CS(=O)(=O)CCN1CC1	–	> 10	–	> 10	–	> 10	–	> 10	–	> 10 µM	–	> 10	–	> 10	–	> 10	–	> 10	–	> 10
CC(CCCOC(c1ccccc1)(c1ccccc1)c1ccccc1)OC(=O)Nc1ccccc1 (stereo unspecified)	–	23.9	–	25.9	–	25	–	44.7	–	27.1 µM	–	27.4	–	25.8	–	24.4	–	28.7	–	27.2
CO[C@H]1CC(c2ccc[nH]2)=N[C@]12O[C@@H](C)C[C@@H]1CCCCCCCc3ccc([nH]3)[C@H]12	1.29	9.98	1.65	> 32.2	0.508	22.2	0.72	4.93	0.527	1.17 µM	1.05	7.96	1.04	> 33.3	1.49	18.9	1.92	8.26	0.898	3.35
O=C1OC(c2ccccc2)=N/C1=C\c1cccc(F)c1	–	40.1	–	> 100	–	94.9	–	56.4	–	> 100 µM	–	> 100	–	> 100	–	> 100	–	> 100	–	> 100
COc1cc(/C=C/C(=O)c2cccnc2Nc2ccc(F)cc2)cc(OC)c1OC	2.69	7.04	4.18	17.6	3.81	19	1.93	8.36	2.51	8.24 µM	3.3	24.1	2.75	6.69	3.23	> 100	3.22	17.3	3.19	9.94
COc1cc(Cl)cc(-c2nn(-c3cccc(NC(=O)Nc4ccc(Cl)c(C(F)(F)F)c4)c3)cc2-c2ccncc2)c1	0.418	2.5	2.66	12.1	1.8	28.8	1.08	4.38	1.54	2.93 µM	1.61	10.5	1.14	4.38	1.56	8.21	2.41	8.41	1.33	3.47
CC(=O)C1=CCC2c3[nH]c4ccccc4c3CCN2C1 (stereo unspecified)	–	65.6	–	> 100	–	> 100	–	> 100	–	> 100 µM	–	> 100	–	> 100	–	> 100	–	> 100	–	> 100
CCOC(=O)c1c(C)c(C)n2c1NC(=O)C2	–	> 68	–	> 100	–	> 100	–	> 100	–	> 100 µM	–	> 100	–	> 100	–	> 100	–	> 100	–	> 100
Cc1cc2c(cc1N)C(C)C1(CCC(=O)N2Cc2ccccc2)OCCO1 (stereo unspecified)	–	> 100	–	> 100	–	> 100	–	> 100	–	> 100 µM	–	> 100	–	> 100	–	> 100	–	> 100	–	> 100
COc1ccc(CCNCCCC2c3ccccc3-c3ccccc32)cc1OC	–	30.1	–	30.3	–	30.5	–	24.2	–	23.3 µM	–	20.4	–	16.1	–	28.7	–	23.1	–	11.8
O=C(Nc1ccn(CCI)c(=O)n1)c1ccccc1	–	> 100	–	> 100	–	> 100	–	> 100	–	> 100 µM	–	> 100	–	> 100	–	> 100	–	> 100	–	> 100
O=C(NO)c1ccc(O)c(O)c1	–	> 100	–	> 100	–	> 100	–	> 100	–	> 100 µM	–	> 100	–	> 100	–	> 100	–	> 100	–	> 100
